Measured values from PubChem BioAssay AID2060495 (Molecular Pharmacology Branch, DTP, NCI, 2025).

Tested on: 521955-158-R2-J5-PDC complex spheroid viability
Assay: Anticancer human tumor 521955-158-R2-J5-PDC patient-derived pancreatic carcinoma cell line growth inhibition [GQUAD]
Conditions: for IC50: curve of first compound; for viability, T/C: stronger effect = lower value
Method in brief: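 Viability of tumor cells grown as complex spheroids with endothelial and stromal cells, exposed to drug combinations. Top concentration at or near clinical Cmax (else 10 microM), diluted in half-log increments.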

[1] = second compound 0.0316 µM, first compound 0.0316 µM
[2] = second compound 0.0316 µM, first compound 0.1 µM
[3] = second compound 0.0316 µM, first compound 0.316 µM
[4] = second compound 0.0316 µM, first compound 1 µM
[5] = second compound 0.0316 µM, first compound 3.16 µM
[6] = second compound 0.0316 µM, first compound 10 µM
[7] = second compound 0.1 µM, first compound 0.0316 µM
[8] = second compound 0.1 µM, first compound 0.1 µM
[9] = second compound 0.1 µM, first compound 0.316 µM
[10] = second compound 0.1 µM, first compound 1 µM
[11] = second compound 0.1 µM, first compound 3.16 µM
[12] = second compound 0.1 µM, first compound 10 µM
[13] = second compound 0.316 µM, first compound 0.0316 µM
[14] = second compound 0.316 µM, first compound 0.1 µM
[15] = second compound 0.316 µM, first compound 0.316 µM
[16] = second compound 0.316 µM, first compound 1 µM
[17] = second compound 0.316 µM, first compound 3.16 µM
[18] = second compound 0.316 µM, first compound 10 µM
[19] = second compound 1 µM, first compound 0.0316 µM
[20] = second compound 1 µM, first compound 0.1 µM
[21] = second compound 1 µM, first compound 0.316 µM
[22] = second compound 1 µM, first compound 1 µM
[23] = second compound 1 µM, first compound 3.16 µM
[24] = second compound 1 µM, first compound 10 µM
[25] = second compound 3.16 µM, first compound 0.0316 µM
[26] = second compound 3.16 µM, first compound 0.1 µM
[27] = second compound 3.16 µM, first compound 0.316 µM
[28] = second compound 3.16 µM, first compound 1 µM
[29] = second compound 3.16 µM, first compound 3.16 µM
[30] = second compound 3.16 µM, first compound 10 µM
[31] = second compound 10 µM, first compound 0.0316 µM
[32] = second compound 10 µM, first compound 0.1 µM
[33] = second compound 10 µM, first compound 0.316 µM
[34] = second compound 10 µM, first compound 1 µM
[35] = second compound 10 µM, first compound 3.16 µM
[36] = second compound 10 µM, first compound 10 µM
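Also: spheroids exposed to agents for one week before reading.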
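For viability, T/C in this document: 100% = DMSO vehicle control viability.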

## CC(C)(O)C1CCC(Nc2ccc3ncc(-c4cccc(C(F)(F)F)c4)n3n2)CC1 (stereo unspecified) + CN(C)c1ccc(Nc2c3ccc(NC(=O)CCN4CCCC4)cc3nc3cc(NC(=O)CCN4CCCC4)ccc23)cc1
Second compound 0.0316 µM
  IC50: 2.06 µM
Second compound 0.1 µM
  IC50: 2.01 µM
Second compound 0.316 µM
  IC50: 2.05 µM
Second compound 1 µM
  IC50: 2.01 µM
Second compound 3.16 µM
  IC50: 1.8 µM
Second compound 10 µM
  IC50: 1.28 µM
[1]
  viability, T/C: 102%
[2]
  viability, T/C: 107%
[3]
  viability, T/C: 105%
[4]
  viability, T/C: 111%
[5]
  viability, T/C: 13.1%
[6]
  viability, T/C: 19.7%
[7]
  viability, T/C: 101%
[8]
  viability, T/C: 103%
[9]
  viability, T/C: 98.5%
[10]
  viability, T/C: 117%
[11]
  viability, T/C: 10.4%
[12]
  viability, T/C: 18.7%
[13]
  viability, T/C: 106%
[14]
  viability, T/C: 88%
[15]
  viability, T/C: 113%
[16]
  viability, T/C: 113%
[17]
  viability, T/C: 16.1%
[18]
  viability, T/C: 17.5%
[19]
  viability, T/C: 95.4%
[20]
  viability, T/C: 107%
[21]
  viability, T/C: 95.8%
[22]
  viability, T/C: 116%
[23]
  viability, T/C: 15.1%
[24]
  viability, T/C: 13.6%
[25]
  viability, T/C: 82%
[26]
  viability, T/C: 87.3%
[27]
  viability, T/C: 79.2%
[28]
  viability, T/C: 99.5%
[29]
  viability, T/C: 13.8%
[30]
  viability, T/C: 15%
[31]
  viability, T/C: 70.4%
[32]
  viability, T/C: 73.1%
[33]
  viability, T/C: 64.6%
[34]
  viability, T/C: 62.2%
[35]
  viability, T/C: 6.61%
[36]
  viability, T/C: 1.12%

## CC(C)n1c(=O)n(C)c2cnc3cc(F)c(-c4ccc(OCCCN5CCCCC5)nc4)cc3c21 + Cc1[nH]c2ccc(F)cc2c1-c1nc2c3cccnc3c3ncccc3c2[nH]1
Second compound 0.0316 µM
  IC50: > 10 µM
Second compound 0.1 µM
  IC50: > 10 µM
Second compound 0.316 µM
  IC50: > 10 µM
Second compound 1 µM
  IC50: > 10 µM
Second compound 3.16 µM
  IC50: > 10 µM
Second compound 10 µM
  IC50: > 10 µM
[1]
  viability, T/C: 116%
[2]
  viability, T/C: 90.8%
[3]
  viability, T/C: 109%
[4]
  viability, T/C: 84.5%
[5]
  viability, T/C: 101%
[6]
  viability, T/C: 94.4%
[7]
  viability, T/C: 94.8%
[8]
  viability, T/C: 114%
[9]
  viability, T/C: 97.7%
[10]
  viability, T/C: 105%
[11]
  viability, T/C: 115%
[12]
  viability, T/C: 84.8%
[13]
  viability, T/C: 105%
[14]
  viability, T/C: 108%
[15]
  viability, T/C: 116%
[16]
  viability, T/C: 104%
[17]
  viability, T/C: 90.8%
[18]
  viability, T/C: 83.7%
[19]
  viability, T/C: 101%
[20]
  viability, T/C: 113%
[21]
  viability, T/C: 104%
[22]
  viability, T/C: 94.9%
[23]
  viability, T/C: 108%
[24]
  viability, T/C: 91.1%
[25]
  viability, T/C: 107%
[26]
  viability, T/C: 110%
[27]
  viability, T/C: 109%
[28]
  viability, T/C: 102%
[29]
  viability, T/C: 115%
[30]
  viability, T/C: 94.2%
[31]
  viability, T/C: 114%
[32]
  viability, T/C: 92.8%
[33]
  viability, T/C: 115%
[34]
  viability, T/C: 110%
[35]
  viability, T/C: 108%
[36]
  viability, T/C: 79.1%

## Cc1cccc(N(C)C(=O)C2C(O)CCN2c2nc(C)cc(C(F)(F)F)c2C#N)c1 (stereo unspecified) + Cc1[nH]c2ccc(F)cc2c1-c1nc2c3cccnc3c3ncccc3c2[nH]1
Second compound 0.0316 µM
  IC50: > 10 µM
Second compound 0.1 µM
  IC50: > 10 µM
Second compound 0.316 µM
  IC50: > 10 µM
Second compound 1 µM
  IC50: > 10 µM
Second compound 3.16 µM
  IC50: > 10 µM
Second compound 10 µM
  IC50: > 10 µM
[1]
  viability, T/C: 111%
[2]
  viability, T/C: 85.8%
[3]
  viability, T/C: 110%
[4]
  viability, T/C: 107%
[5]
  viability, T/C: 110%
[6]
  viability, T/C: 123%
[7]
  viability, T/C: 92.2%
[8]
  viability, T/C: 109%
[9]
  viability, T/C: 94.7%
[10]
  viability, T/C: 106%
[11]
  viability, T/C: 126%
[12]
  viability, T/C: 120%
[13]
  viability, T/C: 91.1%
[14]
  viability, T/C: 93.5%
[15]
  viability, T/C: 101%
[16]
  viability, T/C: 114%
[17]
  viability, T/C: 112%
[18]
  viability, T/C: 111%
[19]
  viability, T/C: 92.7%
[20]
  viability, T/C: 100%
[21]
  viability, T/C: 108%
[22]
  viability, T/C: 105%
[23]
  viability, T/C: 128%
[24]
  viability, T/C: 115%
[25]
  viability, T/C: 110%
[26]
  viability, T/C: 88.2%
[27]
  viability, T/C: 92.5%
[28]
  viability, T/C: 91.8%
[29]
  viability, T/C: 132%
[30]
  viability, T/C: 120%
[31]
  viability, T/C: 115%
[32]
  viability, T/C: 104%
[33]
  viability, T/C: 104%
[34]
  viability, T/C: 122%
[35]
  viability, T/C: 126%
[36]
  viability, T/C: 113%
